Measurements reported in US7585859B2, “PDE4B inhibitors and uses therefor” (Plexxikon, Inc., priority 2004, dated 2009).
Where two headings read alike, the source gives them in different places.

Columns and labels:
PDE4D = biological target: T1, PDE4D (Homo sapiens, UniProt Q08499); assay: PDE4 IC50 determination by Scintillation Proximity Assay, PDE4D; type: biochemical
T1 construct: PDE4D: The catalytic domain of human PDE4B from S3 16-V692; His6 (N); thrombin cleavage site (N); made in house; host or cells: E. coli
T1 sequence (Q08499 380-756): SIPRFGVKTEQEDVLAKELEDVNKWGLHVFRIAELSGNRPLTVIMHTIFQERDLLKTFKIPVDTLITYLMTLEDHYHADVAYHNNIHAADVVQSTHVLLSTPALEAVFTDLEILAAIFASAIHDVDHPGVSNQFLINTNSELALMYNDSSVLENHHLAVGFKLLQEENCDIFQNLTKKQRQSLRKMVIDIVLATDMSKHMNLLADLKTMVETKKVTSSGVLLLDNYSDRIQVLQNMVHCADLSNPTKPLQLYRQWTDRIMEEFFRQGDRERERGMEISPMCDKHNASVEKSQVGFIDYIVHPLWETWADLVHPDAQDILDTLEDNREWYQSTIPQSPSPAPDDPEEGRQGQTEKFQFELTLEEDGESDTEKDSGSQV
Method in brief: (§1)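 Hydrolysis of [^3H]cAMP measured by SPA with yttrium silicate beads, which bind the [^3H]AMP product strongly and cAMP weakly. Enzyme at 80 ng/ml for PDE4B, 4 ng/ml for PDE4D; 30 min at 30°.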

[1] = test system: TNF alpha production in LPS-stimulated human blood (Buffy coat); assay: TNF alpha production by stimulation with LPS in whole blood cultures; type: cell-based
Protocol: Compounds were assayed to generate IC50 numbers as described in Example 54, using the following assay protocol (see Tables 3B and 4B for compounds and results).
Protocol • 1) Obtained 20 mM DMSO aliquots of desired concentrations of compounds (see Tables 3B and 4B for compounds tested and results). Placed 2 μl/well compound in DMSO in the top row of the dilution plate. Added 98 μl of RPMI 1640 media w/2.5% heat inactivated FBS.
2) Made the same media with 2% DMSO in it. Added 60 μl/well to well to make compound titration. Took 30 μl of top row and did a 1:3 dilution down the plate. In column 11 added 4 wells of 50 μM roflumilast and piclamilast. In column 12 added 2% DMSO media.
3) Transfered 20 μl/well into assay plates in duplicate.
4) Obtained human Buffy coat.
5) Diluted blood with 7 volumes of RPMI 1640 media with 1% P/S and 2.5% heat inactivated FBS (a 1:8 dilution)
6) Added160 μl/well of diluted blood to the assay plates.
7) Incubated for 1 hour at 37 degrees 5% CO2
8) Diluted LPS (which was already diluted to 1 mg/ml in PBS, 20 μl aliquots frozen −20 C.) to 10× desired final concentration to make a […] dilution (final concentration should be 100 ng/ml).
9) After 1 hour incubation added 20 μl/well of LPS to plates. A non-LPS treated background was also prepared. Samples were put on the shaker for a one minute 900 rpm.
10) Incubated for 4 hours in incubator.
11) After incubation, put on the shaker for a one minute 900 rpm and spun plate at 100 g for 10 minutes, Decel 5.
12) Carefully pipetted the top 75 μl supernatant into a new plate. Samples were frozen as needed.
Biosource hu-TNF ALPHA ELISA
• REAGENTS USED • DPBS 10×: VWR45000-428 (dilute 1:10 with Millipore Water) • TWEEN 20: FISHER BP337-500 • CAPTURE AND DETECTION ANTIBODIES: R&D DY510E • STREP-HRP: Biosource part SNN4004X • COLOR REAGENTS: R&D DY994 • STOP SOLUTION: from chemistry, or R&D DY999 • 1) Thawed samples to RT as needed. • 2) Added 50 μl Incubation buffer/well. • 3) Added 50 μl blood samples +50 μl Diluent buffer • 4) Incubated 2 hours at room temp. • 5) Washed the plate 4× with 300 μl/well wash buffer with microfill. Wash buffer was DPBS with 0.05% Tween pH 7.2-7.4 • 6) Added 100 μl biotinylated anti-TNFalpha • 7) Incubateed 1 hours at room temp. • 8) Washed the plate 4× with 300 μl/well wash buffer with microfill. Wash buffer was DPBS with 0.05% Tween pH 7.2-7.4 • 9) Added^100 μl Streptavidin-HRP working solution • 10) Incubated for 30 minutes at room temp. • 11) Washed the plate 4× with 300 μl/well wash buffer with microfill. Wash buffer was DPBS with 0.05% Tween pH 7.2-7.4 • 12) Added 100 μl Chromagen • 13) Incubated in the dark for 30 minutes until the blue color developed satisfactorily. • 14) Added 100 μl/well stop solution (2 N H2SO4). • 15) Read plate on WallacVictor at 450 nm for 0.1 sec/well

[2] = test system: TNFα levels in serum of LPS-challenged rats; assay: Rat inhibition studies: serum TNFα after iv LPS challenge; type: in vivo; conditions: read-out: % inhibition r TNFα; for inhibition in vivo at 100 mg/kg: 100 mg/kg po
Method in brief: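 Male CD (SD) rats, groups of 5, dosed po or ip; 2 h later iv LPS 0.1 mg/kg. Serum collected 2 h post-LPS unless otherwise indicated, TNFα measured by ELISA in duplicate. Values are percent decrease versus vehicle-dosed groups.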

[3] = biological target: T2, PDE4B: The catalytic domain of human PDE4B from S152-S528 (Homo sapiens, UniProt Q07343); assay: PDE4 IC50 determination by Scintillation Proximity Assay, PDE4B; type: biochemical
T2 construct: His6 (N); thrombin cleavage site (N); made in house; host or cells: E. coli
T2 sequence (Q07343 with tags, fused parts or gaps): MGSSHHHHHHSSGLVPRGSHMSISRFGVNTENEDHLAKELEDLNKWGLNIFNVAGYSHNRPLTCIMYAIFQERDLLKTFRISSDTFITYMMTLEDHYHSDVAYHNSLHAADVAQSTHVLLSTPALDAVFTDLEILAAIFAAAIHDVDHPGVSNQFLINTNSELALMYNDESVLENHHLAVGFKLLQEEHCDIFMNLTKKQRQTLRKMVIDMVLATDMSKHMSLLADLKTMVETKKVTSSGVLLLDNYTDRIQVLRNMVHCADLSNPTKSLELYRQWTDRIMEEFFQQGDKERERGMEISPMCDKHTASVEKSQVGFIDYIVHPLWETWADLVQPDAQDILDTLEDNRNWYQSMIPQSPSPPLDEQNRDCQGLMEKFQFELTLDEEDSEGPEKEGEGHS
Method in brief: as §1

[4] = Table 1B, Formula I compounds, read-out: IC50 PDE4D
[5] = Homo sapiens, Table 1B, Formula I compounds, read-out: IC50 h TNFα
[6] = po, 2 h, rat in vivo inhibition assay, 2 hr challenge delay
[7] = Table 1B, Formula I compounds, read-out: IC50 PDE4B
[8] = 2 h, rat, po, 2 hr challenge delay
[9] = human whole blood, LPS 100 ng/ml, read-out: IC 50 vs. indicated assay h TNFα
[10] = po, 2 h, rat in vivo, 2 hr challenge delay, percent decrease in TNFα versus vehicle
[11] = second part of Table 2B (2-23 to 2-103), column 5, column is PDE4D in first part, read-out: IC 50 vs. indicated assay h TNFα
[12] = second part of Table 2B (2-23 to 2-103), column 3, column is PDE4B in first part, read-out: IC 50 vs. indicated assay h TNFα

SMILES	IC50 (PDE4D; [4])	IC50 [1, 5]	IC50 [3, 7]	inhibition in vivo at 50 mg [2, 8]	other results
N#Cc1c(Nc2ccccc2)sc(C(=O)C2CC2)c1N [Compound 1-28, 4-Amino-5-cyclopropanecarbonyl-2-phenylamino-thiophene-3-carbonitrile]	< 10 µM	< 10 µM	< 10 µM		inhibition in vivo at 100 mg/kg [2, 6]: < 20%
COc1ccc(C(=O)c2sc(Nc3ccccc3)c(C#N)c2N)cc1 [Compound 1-31]	< 10 µM	< 10 µM	< 10 µM		inhibition in vivo at 200 mg ([2]; 1 h, rat, 200 mg, po, 1 hr challenge delay): < 20%; inhibition in vivo at 100 mg/kg [2, 6]: > 20%
CCOC(=O)c1c(NC2CCCC2)sc(C(=O)c2ccc(OC)cc2)c1N [Compound 1-191, 4-Amino-2-cyclopentylamino-5-(4-methoxy-benzoyl)-thiophene-3-carboxylic acid ethyl ester]	< 10 µM	> 10 µM	< 10 µM	< 20%	
N#Cc1c(Nc2ccccc2)sc(C(=O)c2cc(-c3ccccc3)no2)c1N [Compound 1-192, 4-Amino-2-phenylamino-5-(3-phenyl-isoxazole-5-carbonyl)-thiophene-3-carbonitrile]	< 10 µM	< 10 µM	< 10 µM	< 20%	
CC(C)Nc1sc(C(=O)c2cc(-c3ccccc3)no2)c(N)c1C#N [Compound 1-205, 4-Amino-2-isopropylamino-5-(3-phenyl-isoxazole-5-carbonyl)-thiophene-3-carbonitrile]	< 10 µM	> 10 µM	< 10 µM		inhibition in vivo at 100 mg/kg [2, 6]: < 20%
CC(C)Nc1sc(C(=O)c2cc(-c3ccc(Cl)cc3)no2)c(N)c1C#N [Compound 1-212, 4-Amino-5-[3-(4-chloro-phenyl)-isoxazole-5-carbonyl]-2-isopropylamino-thiophene-3-carbonitrile]	> 10 µM	> 10 µM	< 10 µM		inhibition in vivo at 90 mg ([2]; 2 h, rat, 90 mg, po, 2 hr challenge delay): > 20%
CC(C)CNc1sc(C(=O)c2cc(-c3ccccc3)no2)c(N)c1C(N)=O [Compound 1-236, 4-Amino-2-isobutylamino-5-(3-phenyl-isoxazole-5-carbonyl)-thiophene-3-carboxylic acid amide]	< 10 µM	> 10 µM	< 10 µM	> 20%	inhibition in vivo at 50 mg ([2]; 2 h, rat, ip, 2 hr challenge delay): > 20%
NC(=O)c1c(NC2CCCC2)sc(C(=O)c2cc(-c3ccccc3)no2)c1N [Compound 1-251, 4-Amino-2-cyclopentylamino-5-(3-phenyl-isoxazole-5-carbonyl)-thiophene-3-carboxylic acid amide]	< 10 µM	> 10 µM	< 10 µM	> 20%	
Nc1nc(Nc2ccccc2F)sc1C(=O)c1cc(-c2ccccc2)no1 [Compound 2-6, [4-Amino-2-(2-fluoro-phenylamino)-thiazol-5-yl]-(3-phenyl-isoxazol-5-yl)-methanone]					IC50 (PDE4D; first part of Table 2B (2-1 to 2-22), read-out: IC 50 vs. indicated assay PDE4D): < 10 µM; IC50 [1, 9]: > 10 µM; inhibition in vivo at 100 mg/kg [2, 10]: > 20%; IC50 ([3]; first part of Table 2B (2-1 to 2-22), read-out: IC 50 vs. indicated assay PDE4B): < 10 µM
Nc1nc(Nc2ccc(Cl)cc2)sc1C(=O)c1cccc(C(F)(F)F)c1 [Compound 2-23, [4-Amino-2-(4-chloro-phenylamino)-thiazol-5-yl]-(3-trifluoromethyl-phenyl)-methanone]					IC50 (PDE4D; [11]): < 10 µM; IC50 [1, 9]: > 10 µM; inhibition in vivo at 100 mg/kg [2, 10]: < 20%; IC50 [3, 12]: < 10 µM
Nc1nc(NC2CCCC2)sc1C(=O)c1cccc(Cl)c1 [Compound 2-80, (4-Amino-2-cyclopentylamino-thiazol-5-yl)-(3-chloro-phenyl)-methanone]					IC50 (PDE4D; [11]): < 10 µM; IC50 [1, 9]: < 10 µM; inhibition in vivo at 100 mg/kg [2, 10]: > 20%; IC50 [3, 12]: < 10 µM
